Experimental data reported in patent publication US20240301319A1, “PERFUMING COMPOSITIONS” (FIRMNICH SA, priority 2017, published 2024).

Key:
[1] = Odor threshold and odor value of perfuming compounds (Tables 4 to 10); conditions: perfuming compounds having a green note
[2] = Log P (n-octanol/water) of perfuming compounds (Tables 4 to 10); conditions: n-octanol/water; perfuming compounds having a green note
[3] = Volatility of perfuming compounds (Tables 4 to 10), with top/middle/bottom note type; format: physicochemical; conditions: perfuming compounds having a green note
Outline: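 Note type follows from air volatility (μg/l): bottom 49–0.1, middle 99–50, top 70,000–100. Compounds are listed within watery, green, fruity, citrus, sweet, gourmand and woody families.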

CCCCCCCCCCO [1-DECANOL]
Odor Threshold (μg/l air) [1]: 1.13E−02 μg/l air
Log P (n-octanol/water) [2]: 4.10
Type ([3]; note type (Top/Middle/Bottom) by volatility): Bottom
Volatility (μg/l air) [3]: 31.90 μg/l air
